System: human myeloma cell line MM.1S
Assay: SILAC acetylated-lysine peptide profiling, HDAC inhibitor vs DMSO (light/heavy ratio)
Assay type: cell-based
Excerpt: An embodiment of the invention comprises utilizing the SILAC method in order to quantitate changes in protein expression between two or more populations of cells. The SILAC method is a technique based on mass spectrometry that detects differences in protein abundance among samples using non-radioactive isotopic labeling. The SILAC method is known in the art, and described in detail in Ong et al., “Stable Isotope Labeling by Amino Acids in Cell Culture, SILAC, as a Simple and Accurate Approach to Expression Proteomics”, Molecular & Cellular Proteomics, vol. 1, pp. 376-386 (2002), which is incorporated herein by reference in its entirety.
Briefly, the SILAC method involves growing two populations of cells in cell culture. The first population of cells is grown in growth media containing normal amino acids (“normal media”). The second population of cells is grown in media lacking a standard essential amino acid (such as lysine), but is then supplemented with a non-radioactive, isotopically labeled form of that essential amino acid (such as lysine labeled with ^13C atoms, rather than normal ^12C atoms), which is called “heavy media”. When the two populations of cells are each growing in the medium, they incorporate the amino acids into all of their proteins. The growth of cells maintained in the heavy media is no different from that in normal media. All peptides containing the heavy amino acids are heavier than their normal counterparts. The cells from each of the two populations of cells are lysed. The lysates from each of the two cell populations are then combined. The combined cell lysates are then analyzed by mass spectrometry. Pairs of chemically identical peptides of different stable isotope composition can be differentiated in a mass spectrometer due to their difference in mass. The ratio of peak intensities in the mass spectrum for such peptide pairs reflects the abundance ratio for the two proteins.
This example describes SILAC studies that were performed to compare the effects of three different HDAC inhibitors (Compound A, Compound B, and tubastatin A) to a control on a human multiple myeloma cell line. The HDAC inhibitors were also compared amongst themselves to determine differences in their effects.
A human myeloma cell line MM.1S was grown using either ^12C (light) or ^13C (heavy) lysine containing culture medium. The “heavy” cells were treated with DMSO as the control, and the “light” cells were treated with a single HDAC inhibitor at 37° C. for 6 hours. The heavy and light cells were lysed, and the lysates were mixed in 1:1 ratio and digested with the protease trypsin. The acetylated lysine containing peptides (due to the action of the HDAC inhibitor) in the digested peptide pool were captured by a non-specific anti-acetylated lysine antibody cocktail (the antibodies identify both light and heavy acetylated peptides), and subjected to mass spectrometry analysis in order to identify thousands of individual peptides.
Thousands of peptides were identified in pairs (^12C and ^13C) due to their known mass differences. The amino acid sequence and quantitative ratio (Light/Heavy) of a given peptide in two differentially treated cell lysates were then determined and annotated with their possible protein (gene) sources.
As stated above, three HDAC inhibitors (Compound A, Compound B, and Tubastatin A) were used. Thus, the SILAC method was performed three times, with a different HDAC inhibitor compared to a control each time. Accordingly, there are three pairs of quantitative data in the table below, i.e., Compound A:DMSO, Compound B:DMSO, and Tubastatin A:DMSO. A cut-off of 1.30 fold of change (increase or decrease) was then used to determine “changed” or “+” in the table, and any peptides with a fold of change less than 1.3 fold were determined to be “unchanged” or “0” in the table. Those peptides that were not identified were marked as “NA” in the table. […]

What does the source list for `CN1CCc2c(c3ccccc3n2Cc2ccc(C(=O)NO)cc2)C1` [Tub A]?
light to heavy ratio (L/H ratio) of acetylated peptide SNPSEVVEFTTCPDK(ac)PGIPVKPSVK (SEQ ID NO: 336) (Isoform 2 of Fibronectin type-III domain-containing protein 3A [507], FNDC3A, drug:DMSO): 0.00 log 2; light to heavy ratio (L/H ratio) of acetylated peptide LIAGNK(ac)PVSFLTAQQLQQLQQQGQATQVR (SEQ ID NO: 512) (Isoform 2 of Nuclear factor related to kappa-B-binding protein [1262], gene NFRKB, inhibitor:DMSO): 0.00 log 2; light to heavy ratio (L/H ratio) of acetylated peptide YQQFK(ac)DFQR (SEQ ID NO: 258) (Isoform 2 of Spliceosome RNA helicase DDX39B [349], SNORD84, DDX39B, drug:DMSO): −0.38 log 2; light to heavy ratio (L/H ratio), log 2 scale, acetylated peptide LEPLK(ac)PLK (SEQ ID NO: 772) (Isoform 3 of Proline-rich protein 12 [1223], gene PRR12, drug:DMSO): 0.00; light to heavy ratio (L/H ratio), log 2 scale, acetylated peptide DQTK(ac)SIVEK (SEQ ID NO: 810) (Isoform 3 of Reticulon-3 [217], gene RTN3, drug:DMSO): 0.00; light to heavy ratio (L/H ratio) of acetylated peptide VQDGLSDIAEK(ac)FLK (SEQ ID NO: 326) (Isoform 5 of Transcriptional regulator ATRX [812], ATRX, drug:DMSO): 0.00 log 2; light to heavy ratio (L/H ratio) of acetylated peptide K(ac)SSETLR (SEQ ID NO: 601) (Isoform CNPI of 23-cyclic-nucleotide 3-phosphodiesterase [177], gene CNP, inhibitor:DMSO): 0.00 log 2; light to heavy ratio (L/H ratio) of acetylated peptide MVAAAK(ac)YAR (SEQ ID NO: 324) (Isoform Heart of ATP synthase subunit gamma mitochondrial [55], ATP5C1, drug:DMSO): 0.00 log 2; light to heavy ratio (L/H ratio) of acetylated peptide VPNDK(ac)YYGAQTVR (SEQ ID NO: 625) (Isoform Mitochondrial of Fumarate hydratase mitochondrial [66], gene FH, inhibitor:DMSO): 0.00 log 2; light to heavy ratio (L/H ratio) of acetylated peptide APQCLGK(ac)FIEIAAR (SEQ ID NO: 338) (Isoform Short of Heterogeneous nuclear ribonucleoprotein U [546], HNRNPU, drug:DMSO): 0.00 log 2; light to heavy ratio (L/H ratio) of acetylated peptide LLEQYK(ac)EESK (SEQ ID NO: 302) (Isoform Short of Heterogeneous nuclear ribonucleoprotein U [651], HNRNPU, drug:DMSO): −0.57 log 2; light to heavy ratio (L/H ratio) of acetylated peptide, log 2 scale (K(ac)HPDASVNFSEFSK (SEQ ID NO: 164), Similar to nonhistone chromosomal protein HMG-1 [30], HMGB1P4): −0.39; light to heavy ratio (L/H ratio) of acetylated peptide, log 2 scale (K(ac)TFEINPR (SEQ ID NO: 171), Endoplasmin [683], HSP90B1): −0.73; light to heavy ratio (L/H ratio) of acetylated peptide, log 2 scale (K(ac)YEDICPSTHNMDVPNIK (SEQ ID NO: 152), Eukaryotic translation initiation factor 5A-2 [68], EIF5A2): −0.56; light to heavy ratio (L/H ratio) of acetylated peptide, log 2 scale (KLPK(ac)NEPQNATGAPGR (SEQ ID NO: 198), Ras-related protein Rab-5C [184], RAB5C): 0.38; light to heavy ratio (L/H ratio), log 2 scale, acetylated peptide (ac)ASPSLERPEK(ac)GAGK (SEQ ID NO: 801) (KRR1 small subunit processome component homolog [11], gene KRR1, drug:DMSO): 0.00; light to heavy ratio (L/H ratio) of acetylated peptide IVADK(ac)DYSVTANSK (SEQ ID NO: 317) (L-lactate dehydrogenase B chain [82], LDHB, drug:DMSO): 0.51 log 2; L/H ratio of acetylated peptide (LAK(ac)LSDGVAVLK (SEQ ID NO: 484), 60 kDa heat shock protein mitochondrial [396], HSPD1): 0.00 log 2; light to heavy ratio (L/H ratio) of acetylated peptide, log 2 scale (LENK(ac)MEGIGLK (SEQ ID NO: 131), PRA1 family protein 3 [151], ARL6IP5): 0.67; light to heavy ratio (L/H ratio) of acetylated peptide, log 2 scale (LIK(ac)VHLDK (SEQ ID NO: 215), 40S ribosomal protein S7 [155], RPS7): −0.50; light to heavy ratio (L/H ratio) of acetylated peptide, log 2 scale (LIYDTK(ac)GR (SEQ ID NO: 213), 40S ribosomal protein S4 X isoform [106], RPS4X): −0.40; L/H ratio of acetylated peptide IHLEIK(ac)QLNR (SEQ ID NO: 57) (LMAN1 [346], log 2 scale, drug vs DMSO): −0.56; L/H ratio of acetylated peptide LYK(ac)EELEQTYHAK (SEQ ID NO: 4) (LMNB1 [261], log 2 scale, drug vs DMSO): 0.46; L/H ratio of acetylated peptide LYKEELEQTYHAK(ac)LENAR (SEQ ID NO: 58) (LMNB1 [271], log 2 scale, drug vs DMSO): −0.73; light to heavy ratio (L/H ratio) of acetylated peptide, log 2 scale (LNEQK(ac)LAQLEEAK (SEQ ID NO: 133), ATP synthase subunit b mitochondrial [131], ATP5F1): 0.72; L/H ratio of acetylated peptide GFGYK(ac)GSCFHR (SEQ ID NO: 59) (LOC390956 [71], log 2 scale, drug vs DMSO): −0.45; light to heavy ratio (L/H ratio) of acetylated peptide, log 2 scale (LSLDK(ac)VFR (SEQ ID NO: 226), Stomatin-like protein 2 [145], STOML2): −0.41; light to heavy ratio (L/H ratio) of acetylated peptide, log 2 scale (LTALDYHNPAGFNCK(ac)DETEFR (SEQ ID NO: 137), UPF0568 protein C14orf166 [20], C14orf166): 0.41; light to heavy ratio (L/H ratio) of acetylated peptide, log 2 scale (LTEAKPVDK(ac)VK (SEQ ID NO: 221), cDNA FLJ60124 highly similar to Mitochondrial dicarboxylate carrier [142], SLC25A10): −0.50; L/H ratio of acetylated peptide (LTLSALLDGK(ac)NVNAGGHK (SEQ ID NO: 466), Voltage-dependent anion-selective channel protein 1 [266], VDAC1): 0.00 log 2; L/H ratio of acetylated peptide (LVSEK(ac)LASYQAAR (SEQ ID NO: 476), Isoform 2 of Myc proto-oncogene protein [163], MYC): 0.00 log 2; light to heavy ratio (L/H ratio) of acetylated peptide AVLK(ac)FAAATGATPIAGR (SEQ ID NO: 262) (Laminin receptor-like protein LAMRL5 [89], SNORA6, RPSAP15, SNORA62, RPSA, drug:DMSO): −0.53 log 2; light to heavy ratio (L/H ratio) of acetylated peptide SYVSEK(ac)DVTSAK (SEQ ID NO: 628) (Leucine-rich PPR motif-containing protein mitochondrial [1332], gene LRPPRC, inhibitor:DMSO): 0.00 log 2; L/H ratio of acetylated peptide ICCQFDFK(ac)R (SEQ ID NO: 60) (MAN2A1 [373], log 2 scale, drug vs DMSO): −0.69; L/H ratio of acetylated peptide YLTNQK(ac)NSNSK(ac)NDR (SEQ ID NO: 17) (MEAF6 [69:74], log 2 scale, drug vs DMSO): 0.58; light to heavy ratio (L/H ratio) of acetylated peptide, log 2 scale (MKENQK(ac)HIYYITGETK (SEQ ID NO: 169), Isoform 2 of Heat shock protein HSP 90-alpha [611], HSP90AA1): −0.46; L/H ratio of acetylated peptide TLVLSDK(ac)HSPQK(ac)K (SEQ ID NO: 5) (MLL3 [2809:2814], log 2 scale, drug vs DMSO): 0.67; light to heavy ratio (L/H ratio) of acetylated peptide, log 2 scale (MPTPVIK(ac)AFGILK (SEQ ID NO: 154), Isoform Mitochondrial of Fumarate hydratase mitochondrial [94], FH): −0.55; L/H ratio of acetylated peptide LNK(ac)DQWEER (SEQ ID NO: 10) (MSN [165], log 2 scale, drug vs DMSO): −0.38; light to heavy ratio (L/H ratio) of acetylated peptide LSLLSK(ac)FR (SEQ ID NO: 564) (Mitochondrial trifunctional protein beta subunit (Fragment) [100], gene HADHB, inhibitor:DMSO): 0.00 log 2; light to heavy ratio (L/H ratio) of acetylated peptide EIFQNEK(ac)R (SEQ ID NO: 288) (NAD(P) transhydrogenase mitochondrial [70], NNT, drug:DMSO): 0.55 log 2; light to heavy ratio (L/H ratio) of acetylated peptide AISPDK(ac)DNFYFDVK (SEQ ID NO: 284) (NAD(P) transhydrogenase mitochondrial [403], NNT, drug:DMSO): 0.40 log 2; light to heavy ratio (L/H ratio) of acetylated peptide, log 2 scale (NATVGQSVLNIK(ac)YK (SEQ ID NO: 194), Peroxisome biogenesis factor 2 [84], PEX2): 0.51; light to heavy ratio (L/H ratio) of acetylated peptide, log 2 scale (NCMTDLLAK(ac)LEAK (SEQ ID NO: 201), Receptor expression-enhancing protein 5 [25], REEP5): 0.49

Source: patent US20140357512A1, “HISTONE DEACETYLASE (HDAC) BIOMARKERS IN MULTIPLE MYELOMA” (priority 2013, published 2014)
